Experimental data reported in ChEMBL document CHEMBL1944522, “Design, synthesis, and anaplastic lymphoma kinase (ALK) inhibitory activity for a novel series of 2,4,8,22-tetraazatetracyclo[14.3.1.1³,⁷.1⁹,¹³]docosa-1(20),3(22),4,6,9(21),10,12,16,18-nonaene macrocycles” (J Med Chem, 2012).

Biological target: ALK tyrosine kinase receptor (Homo sapiens, UniProt Q9UM73)
Assay: Inhibition of baculovirus expressed GST-tagged human ALK cytoplasmic domain using PLCgamma as substrate after 15 mins by time-resolved fluorescence analysis

Sequence of ALK tyrosine kinase receptor (Q9UM73 whole entry, the tested form may be a part): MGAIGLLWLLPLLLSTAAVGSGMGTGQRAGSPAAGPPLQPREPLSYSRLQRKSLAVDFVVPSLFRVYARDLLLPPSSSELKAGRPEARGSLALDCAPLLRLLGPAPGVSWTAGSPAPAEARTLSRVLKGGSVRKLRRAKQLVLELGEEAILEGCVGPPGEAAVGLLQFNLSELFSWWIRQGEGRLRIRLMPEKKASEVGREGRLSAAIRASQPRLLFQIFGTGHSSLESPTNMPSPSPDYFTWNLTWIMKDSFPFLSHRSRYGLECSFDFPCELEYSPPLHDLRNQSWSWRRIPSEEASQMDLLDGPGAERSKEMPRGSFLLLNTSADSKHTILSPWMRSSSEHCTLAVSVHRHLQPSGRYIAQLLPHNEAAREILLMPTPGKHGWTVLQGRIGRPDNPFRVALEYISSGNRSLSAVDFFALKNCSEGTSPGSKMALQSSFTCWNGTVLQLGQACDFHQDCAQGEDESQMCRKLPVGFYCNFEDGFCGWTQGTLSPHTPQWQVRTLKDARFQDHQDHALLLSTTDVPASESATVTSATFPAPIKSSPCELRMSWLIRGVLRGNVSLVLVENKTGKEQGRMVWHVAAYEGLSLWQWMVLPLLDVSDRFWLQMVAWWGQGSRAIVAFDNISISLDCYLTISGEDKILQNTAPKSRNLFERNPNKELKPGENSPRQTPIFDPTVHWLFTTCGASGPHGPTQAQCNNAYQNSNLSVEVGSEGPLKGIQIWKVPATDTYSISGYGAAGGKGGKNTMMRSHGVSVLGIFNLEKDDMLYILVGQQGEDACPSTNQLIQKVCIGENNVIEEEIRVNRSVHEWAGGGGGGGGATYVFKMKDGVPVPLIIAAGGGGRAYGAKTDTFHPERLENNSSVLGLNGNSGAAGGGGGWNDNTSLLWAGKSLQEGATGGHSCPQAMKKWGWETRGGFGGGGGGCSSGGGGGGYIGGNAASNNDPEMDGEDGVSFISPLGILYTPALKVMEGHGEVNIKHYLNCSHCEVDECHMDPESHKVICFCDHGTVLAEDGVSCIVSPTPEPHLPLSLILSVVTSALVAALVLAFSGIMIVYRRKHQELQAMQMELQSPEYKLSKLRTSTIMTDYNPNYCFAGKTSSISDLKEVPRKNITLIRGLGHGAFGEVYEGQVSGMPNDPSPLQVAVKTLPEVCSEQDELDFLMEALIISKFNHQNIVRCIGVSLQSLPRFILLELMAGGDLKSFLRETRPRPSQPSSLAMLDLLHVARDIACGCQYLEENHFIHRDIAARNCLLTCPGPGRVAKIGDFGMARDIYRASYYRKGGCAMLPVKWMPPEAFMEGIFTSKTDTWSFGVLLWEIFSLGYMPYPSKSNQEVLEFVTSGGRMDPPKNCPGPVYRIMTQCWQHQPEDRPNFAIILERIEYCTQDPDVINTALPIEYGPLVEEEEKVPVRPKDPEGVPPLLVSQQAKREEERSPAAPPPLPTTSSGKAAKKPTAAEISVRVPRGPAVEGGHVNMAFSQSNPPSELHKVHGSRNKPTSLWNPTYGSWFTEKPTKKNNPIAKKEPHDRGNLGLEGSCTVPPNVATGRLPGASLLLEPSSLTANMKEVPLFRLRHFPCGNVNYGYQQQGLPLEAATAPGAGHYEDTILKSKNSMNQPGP

Work on Clc1cnc2nc1Nc1cccc(c1)CCc1cccc(c1)N2 yielded an IC50 greater than 10 µM.
Work on Clc1cnc2nc1Nc1cccc(c1)CCc1cc(ccc1N1CCOCC1)N2 yielded an IC50 greater than 10 µM.
COc1ccc2cc1Nc1nc(ncc1Cl)Nc1ccc(N3CCOCC3)c(c1)CC2 was tested, and the IC50 was greater than 1 µM.
